Measured values from patent US7829721B2, “Specific caspase-10 inhibitors” (Merck Patent GmbH, priority 2004, dated 2010).

Legend:
[1] = target: T1, caspase-10 (Homo sapiens, UniProt Q92851); assay: Caspase inhibition, delayed-time fluorescence method (europium substrate Eu-W1284-CIETDK-QSy-7)
T1 sequence (Q92851 220-415 limits assumed): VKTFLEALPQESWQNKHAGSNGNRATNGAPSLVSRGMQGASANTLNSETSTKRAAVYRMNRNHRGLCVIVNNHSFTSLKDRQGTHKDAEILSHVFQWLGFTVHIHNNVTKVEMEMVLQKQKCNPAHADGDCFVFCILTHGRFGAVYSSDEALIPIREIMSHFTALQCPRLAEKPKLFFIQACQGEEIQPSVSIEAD
T1 sequence (Q92851 416-521 limits assumed): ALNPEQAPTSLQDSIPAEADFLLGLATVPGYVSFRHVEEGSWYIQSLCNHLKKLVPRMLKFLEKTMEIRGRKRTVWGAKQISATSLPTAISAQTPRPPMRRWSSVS
Description: (§1) The substrate used is a tetrapeptide specific to this caspase, having at one of its ends a fluorescent europium marker (W1284) and at the other end a europium chelate fluorescence quencher (QSy-7): Eu-W1284-CIETDK-QSy-7.
(§2) The caspase cleaves the substrate, releasing the quencher. Thus, by excitation at 340 nm, the signal emitted by the fluorescence of the europium is read by WALLAC Victor^2 reader at 615 nm.
20 μl of this solution are distributed per well of the assay plate. […] The assay is performed with 1 U of enzyme per well, by distributing 20 μl of the diluted solution per well. • The standard inhibitors: The standard inhibitors are dissolved in DMSO to a concentration of 10 mM.
(§3) They are then distributed in the wells using this solution to reach the final concentration of IC20 or IC50, i.e. 3 μl in 33 μl of final reaction volume (dilution 1/11). Thus, the final concentration of DMSO in the well is 0.3% (v/v) final. […] An intermediate dilution (1/6.6) is pre-pared in DMSO by diluting 10 μl of the concentrated solution in 66 μl of DMSO (final volume). […] The inhibitors are then distributed in the wells to reach the final screening concentration (10 μM), i.e. 3 μl in 33 μl of final reaction volume (dilution 1/11) and a final concentration of DMSO of 0.3% (v/v) in the well.
(§4) The incubation takes place for 3 hours 30 minutes at room temperature before reading the fluorescence in delayed time on the WALLAC Victor^2 reader with the filters corresponding to the fluorescence of europium (excitation filter: 340 nm, emission filter: 615 nm).
(§5) The inhibitors are diluted using solutions with concentrations of less than 20 mM in DMSO, and then prediluted in the caspase buffer.

[2] = target: caspase 8 (Homo sapiens, UniProt Q14790); assay: as above
Description: as §1, §2
They are ready for use or can be divided into aliquots and stored at −80° C. […] 20 μl of this solution are distributed per well of the assay plate. […] The assay is performed with 1 U of enzyme per well, by distributing 20 μl of the diluted solution per well. • The standard inhibitors: The standard inhibitors are dissolved in DMSO to a concentration of 10 mM. They are tested at IC20 and at IC50 on the caspases they inhibit (see following table). The concentrations mentioned in the table are the final concentrations in the assay wells.
as §3
The volumes and the protocol were optimised for automated use.
as §4, §5

[3] = target: T2, caspase 2 (Homo sapiens, UniProt P42575); assay: Caspase inhibition, delayed-time fluorescence method (europium substrate Eu-W1284-CDEVDK-QSy-7)
T2 sequence (P42575 170-325 limits assumed): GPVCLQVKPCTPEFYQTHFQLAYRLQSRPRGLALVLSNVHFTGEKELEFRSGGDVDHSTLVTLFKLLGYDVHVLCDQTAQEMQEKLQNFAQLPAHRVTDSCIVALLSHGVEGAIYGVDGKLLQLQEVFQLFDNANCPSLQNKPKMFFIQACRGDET
T2 sequence (P42575 348-452 limits assumed): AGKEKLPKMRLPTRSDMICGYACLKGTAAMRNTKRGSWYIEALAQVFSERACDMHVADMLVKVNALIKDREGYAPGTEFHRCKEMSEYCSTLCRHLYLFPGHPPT

[4] = target: T3, caspase 6 (Homo sapiens, UniProt P55212); assay: Caspase inhibition, delayed-time fluorescence method (europium substrate Eu-W1284-CVEIDK-QSy-7)
T3 sequence (P55212 24-179 limits assumed): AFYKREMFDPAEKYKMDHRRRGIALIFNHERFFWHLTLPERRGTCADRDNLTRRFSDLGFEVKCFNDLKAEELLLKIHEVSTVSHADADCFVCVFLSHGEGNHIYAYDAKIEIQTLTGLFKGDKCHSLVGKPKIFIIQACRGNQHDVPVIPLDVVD
T3 sequence (P55212 194-293 limits assumed): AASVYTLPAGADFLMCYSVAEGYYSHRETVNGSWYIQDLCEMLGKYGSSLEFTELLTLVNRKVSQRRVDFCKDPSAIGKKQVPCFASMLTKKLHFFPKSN

[5] = target: T4, caspase 3 (Homo sapiens, UniProt P42574); assay: Caspase inhibition, delayed-time fluorescence method (europium substrate Eu-W1284-CDEVDK-QSy-7)
T4 sequence (P42574 29-175 limits assumed): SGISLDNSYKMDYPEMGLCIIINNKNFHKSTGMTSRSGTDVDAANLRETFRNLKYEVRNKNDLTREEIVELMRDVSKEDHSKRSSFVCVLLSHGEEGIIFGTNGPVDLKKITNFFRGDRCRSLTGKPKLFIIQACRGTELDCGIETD
T4 sequence (P42574 176-277 limits assumed): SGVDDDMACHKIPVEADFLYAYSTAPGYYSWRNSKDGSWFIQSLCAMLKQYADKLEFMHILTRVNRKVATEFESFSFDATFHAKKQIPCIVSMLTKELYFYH

[6] = target: T5, caspase 9 (Homo sapiens, UniProt P55211); assay: Caspase inhibition, delayed-time fluorescence method (europium substrate Eu-W1284-CLEHDK-QSy-7)
T5 sequence (P55211 1-315 limits assumed): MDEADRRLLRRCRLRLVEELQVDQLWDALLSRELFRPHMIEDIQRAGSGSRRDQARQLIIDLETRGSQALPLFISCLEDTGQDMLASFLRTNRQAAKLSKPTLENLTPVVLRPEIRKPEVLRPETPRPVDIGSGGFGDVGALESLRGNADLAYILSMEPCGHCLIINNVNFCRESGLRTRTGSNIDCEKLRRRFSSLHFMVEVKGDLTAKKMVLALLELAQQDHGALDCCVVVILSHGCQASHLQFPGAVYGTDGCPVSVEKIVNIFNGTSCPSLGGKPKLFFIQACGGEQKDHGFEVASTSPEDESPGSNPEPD
T5 sequence (P55211 331-416 limits assumed): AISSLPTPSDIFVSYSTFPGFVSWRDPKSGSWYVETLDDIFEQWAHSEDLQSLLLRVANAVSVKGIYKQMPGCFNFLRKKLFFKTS

[7] = system: diabetic rats; conditions: cited from earlier work

Sequence of caspase 8 (Q14790 217-374 limits assumed): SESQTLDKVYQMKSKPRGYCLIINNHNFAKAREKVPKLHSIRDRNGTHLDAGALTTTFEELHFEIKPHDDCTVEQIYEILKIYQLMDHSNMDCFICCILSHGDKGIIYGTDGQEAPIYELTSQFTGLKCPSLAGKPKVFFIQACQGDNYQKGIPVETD
Sequence of caspase 8 (Q14790 385-479 limits assumed): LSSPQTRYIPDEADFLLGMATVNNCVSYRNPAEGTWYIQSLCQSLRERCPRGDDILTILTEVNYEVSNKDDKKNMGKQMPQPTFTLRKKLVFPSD

Row | IC50 [1] | IC50 [2] | IC50 [3] | IC50 [4] | IC50 [5] | IC50 [6] | SMILES | death of the pericytes ([7]; diabetic rats treated for 29 weeks, versus untreated rats) | reduced formation of acellular capillaries ([7]; diabetic rats treated for 26 weeks)
1 | 23.6 µM | > 200 µM | > 200 µM | > 200 µM | > 200 µM | > 200 µM | O=C(O)Cc1cc(Cl)ccc1-c1ccc(C(F)(F)F)cc1 [Example 15, [4-chloro-4′-(trifluoromethyl)biphenyl-2-yl]acetic acid] | – | –
2 | 9 µM | > 200 µM | > 200 µM | > 200 µM | > 200 µM | > 200 µM | COc1ccc(-c2ccc(Cl)cc2CC(=O)O)cc1 [Example 16, (4-chloro-4′-methoxybiphenyl-2-yl)acetic acid] | – | –
3 | 10.1 µM | > 200 µM | > 200 µM | > 200 µM | > 200 µM | > 200 µM | O=C(O)Cc1cc(Cl)ccc1-c1ccc(Cl)cc1 [Example 14, (4,4′-dichlorobiphenyl-2-yl)acetic acid] | – | –

The next lines start with the compound.

Row | SMILES | IC50 [1] | IC50 [2] | IC50 [3] | IC50 [4] | IC50 [5] | IC50 [6] | death of the pericytes ([7]; diabetic rats treated for 29 weeks, versus untreated rats) | reduced formation of acellular capillaries ([7]; diabetic rats treated for 26 weeks)
4 | Cc1ncc(CO)c(CN)c1O [pyridoxamine] | – | – | – | – | – | – | prevents the death of the pericytes | –
5 | Cc1ccc(-c2ccc(Cl)cc2CC(=O)O)cc1 [Example 12, (4-chloro-4′-methylbiphenyl-2-yl)acetic acid] | 13.1 µM | > 200 µM | > 200 µM | > 200 µM | > 200 µM | > 200 µM | – | –
6 | N=C(N)NN [aminoguanidine] | – | – | – | – | – | – | – | 80%
